Data from patent US7569594B2, “Analogs of leucascandrolide A” (The University of Chicago, priority 2005, dated 2009).

How the values were obtained:
[1] = test system: A549, PC3 and HCT116 cells; assay: Cell Growth/Viability Assays (CellTiter-Glo); format: cell-based; conditions: Homo sapiens; 48 h incubation; cancer cells
Description: Cell Growth/Viability Assays. All assays were performed using at least three replicate wells for each compound concentration tested. Cells were seeded in 96-well white plates at the density of 1000 cells/well in 100 μL of the appropriate cell culture media. Adherent A549, PC3 and HCT116 cells were allowed to attach and grow for 24 h and then treated with 30 μL of the solution of a compound and incubated further for 48 h. After incubation, cell viability was determined using a luminescence-based commercial kit (CellTiter-Glo, Promega) and luminescence was analyzed using a Wallac Victor III plate reader. Compound concentration that gave 50% reduction in cell viability when compared with untreated control cells was calculated from sigmoidal plots of cell viability versus drug concentration. To measure cell growth inhibition, similar viability assays were performed twice: at 0 h and after 48 h incubation. And then change in number of viable cells was measured and calculated from sigmoidal plots.
Biological Activity—Using methods similar to that described above, the following compounds were tested.

Yeast = Yeast activity; format: cell-based
[2] = test system: W303 strain of yeast S. cerevisiae; conditions: 11.2 mg per disk; cited from earlier work
[3] = test system: HCT-116 colon cancer cells; conditions: HCT-116 cells; cited from earlier work
[4] = test system: human A549 non-small lung caner cells; conditions: cited from earlier work

With `COC(=O)NC/C=C\c1nc(CC/C=C\C(=O)O[C@@H]2CC3CC(=O)O[C@H](/C=C/CC(C)C)CC4CCCC(C[C@H](OC)CC(C2)O3)O4)co1` (some centres unmarked) the GI50 [1] was 0.01 to 0.1 µM and the “Yeast: Active/Inactive” value (Yeast) was “Yeast: Active”.

With `COC(=O)NC/C=C\c1nc(CC/C=C\C(=O)O[C@H]2CC3CC(=O)O[C@@H](CCCC(C)C)CC4CCCC(C[C@@H](OC)CC(C2)O3)O4)co1` (mixture of isomers) [racemic JJ-2-96] the GI50 [1] was 0.001 to 0.01 µM and the “Yeast: Active/Inactive” value (Yeast) was “Yeast: Active”.

For `CCCCC[C@H]1CC2CCCC(C[C@@H](OC)CC3C[C@@H](OC(=O)/C=C\CCc4coc(/C=C\CNC(=O)OC)n4)CC(CC(=O)O1)O3)O2` (mixture of isomers) [racemic JJ-2-173], the GI50 [1] was 0.001 to 0.01 µM and the “Yeast: Active/Inactive” value (Yeast) was “Yeast: Active”.

With `COC(=O)NC/C=C\c1nc(CC/C=C\C(=O)O[C@H]2CC3CC(=O)O[C@@H](CCCCCO)CC4CCCC(C[C@@H](OC)CC(C2)O3)O4)co1` (mixture of isomers) [racemic JJ-2-194] the GI50 [1] was 0.01 to 0.1 µM and the “Yeast: Active/Inactive” value (Yeast) was “Yeast: Inactive”.

With `C#CCCCCCCCC[C@H]1CC2CCCC(C[C@@H](OC)CC3C[C@@H](OC(=O)/C=C\CCc4coc(/C=C\CNC(=O)OC)n4)CC(CC(=O)O1)O3)O2` (mixture of isomers) [racemic JJ-2-286] the GI50 [1] was 0.001 to 0.01 µM and the “Yeast: Active/Inactive” value (Yeast) was “Yeast: Active”.

With `COC(=O)NC/C=C\c1nc(CC/C=C\C(=O)O[C@H]2CC3CC(=O)O[C@@H](CCCCCCCCc4cn(CCCNC(=O)OC(C)(C)C)nn4)CC4CCCC(C[C@@H](OC)CC(C2)O3)O4)co1` (mixture of isomers) [racemic JJ-2-288] the GI50 [1] was 0.01 to 0.1 µM and the “Yeast: Active/Inactive” value (Yeast) was “Yeast: Active”.

With `COC(=O)NC/C=C\c1nc(CC/C=C\C(=O)O[C@H]2CC3CC(=O)O[C@@H](/C=C/CC(C)C)CC4CCCC(C[C@@H](OC)CC(C2)O3)O4)co1` (single isomer, unassigned; (+)) [(+)-JJ-2-37] the GI50 [1] was 0.001 to 0.01 µM and the “Yeast: Active/Inactive” value (Yeast) was “Yeas: Active”.

In the case of `COC(=O)NC/C=C\c1nc(CC/C=C\C(=O)OC2CC3CC(=O)O[C@H](/C=C/CC(C)C)C[C@H]4CCC(C)C(C[C@H](OC)CC(C2)O3)O4)co1` (some centres unmarked) [Leucascandrolide A], the “inhibition diameter per disk” value [2] is listed as 33 mm, the GI50 [3] is listed as 0.00087 µM and the GI50 [4] is listed as 0.00093 µM.
